In brackets after ≈: the same amount, converted by molar mass.
Legend:
[1] = Resistance index, ratio of IC50 for chloroquine-resistant Plasmodium falciparum W2 to IC50 for chloroquine-sensitive Plasmodium falciparum D10; format: functional
Plasmodium falciparum [2] = assay: Antimalarial activity against chloroquine-resistant Plasmodium falciparum W2 infected in human type A-positive red blood cells assessed as growth inhibition after 72 hrs by spectrophotometrically; format: functional, organism-based; conditions: W2, 72 h
[3] = Selectivity index, ratio of CC50 for HMEC1 to IC50 for chloroquine-sensitive Plasmodium falciparum D10; format: functional
[4] = Selectivity index, ratio of CC50 for HMEC1 to IC50 for chloroquine-resistant Plasmodium falciparum W2; format: functional
[5] = Cytotoxicity against HMEC1 assessed as cell growth inhibition after 72 hrs by MTT assay; parameters: species or system HMEC-1; conditions: human, HMEC1 cells
Plasmodium falciparum [6] = assay: Antimalarial activity against chloroquine-sensitive Plasmodium falciparum D10 infected in human type A-positive red blood cells assessed as growth inhibition after 72 hrs by spectrophotometrically; format: functional; conditions: D10, 72 h
[7] = test system: Mycobacterium tuberculosis; assay: Antimycobacterial activity against Mycobacterium tuberculosis; format: functional
[8] = Resistance index, ratio of IC50 for chloroquine-resistant Plasmodium falciparum W2 to IC50 for chloroquine-sensitive Plasmodium falciparum 3D7; format: functional
Plasmodium falciparum [9] = assay: Antimalarial activity against chloroquine-sensitive Plasmodium falciparum 3D7 infected in human type A-positive red blood cells assessed as growth inhibition after 72 hrs by spectrophotometrically; format: functional, organism-based; conditions: 3D7, 72 h
Plasmodium falciparum [10] = assay: Antimalarial activity against Plasmodium falciparum K1; format: functional, organism-based
[11] = Selectivity index, ratio of CC50 for HMEC1 to IC50 for chloroquine-sensitive Plasmodium falciparum 3D7; format: functional
Plasmodium falciparum [12] = assay: Antimalarial activity against Plasmodium falciparum Dd2; format: functional
Heme = assay: Binding affinity to heme assessed as inhibition of beta-hematin formation measured as compound IC50 to haemin molar ratio by BHIA assay

SMILES | Ratio IC50 [1] | IC50 (Plasmodium falciparum [2]) [nM] | Ratio CC50/IC50 [3] | Ratio CC50/IC50 [4] | CC50 at 72 h [5] [nM] | IC50 (Plasmodium falciparum [6]) [nM] | Ratio IC50 [8] | IC50 (Plasmodium falciparum [9]) [nM] | other results
CN1CCN(CCNc2nc3cc(Cl)ccc3c3c2/C(=N/O)c2ccccc2-3)CC1 | 1.6 | 1060 | 4.4 | 2.8 | 2940 | 676 |  |  | 
c1ccc2c(c1)-c1ccccc1C2C[C@@H]1CCCN2CCCC[C@H]12 |  |  |  |  |  |  |  |  | MIC [7]: 20 µM (≈ 6.35 µg/mL)
C(=C1c2ccccc2-c2ccccc21)[C@@H]1CCCN2CCCC[C@H]12 |  |  |  |  |  |  |  |  | MIC [7]: 0.49 µM (≈ 0.155 µg/mL)
O/N=C1\c2ccccc2-c2c1c(NCCN1CCOCC1)nc1cc(Cl)ccc21 | 1 | 2730 |  |  |  | 2840 | 0.5 | 5390 | 
COc1nc2ccc(Cl)cc2c2c1/C(=N/N1CCN(C)CC1)c1ccccc1-2 | 0.7 | 3160 | 1.2 | 1.7 | 5280 | 4580 |  |  | 
Clc1ccc(/C(=C\[C@@H]2CCCN3CCCC[C@H]23)c2ccccc2)cc1Cl |  |  |  |  |  |  |  |  | IC50 (Plasmodium falciparum [10]): 400 nM
O/N=C1\c2ccccc2-c2c1c(-n1ccnc1)nc1ccc(Cl)cc21 |  | > 5000 |  |  |  | > 5000 |  |  | 
O/N=C1\c2ccccc2-c2c1c(NCCN1CCCCC1)nc1cc(Cl)ccc21 |  | 244 |  | 9.6 | 2340 |  | 0.5 | 530 | Ratio CC50/IC50 [11]: 4.4
CCCCN(CCCC)CC(O)c1cc(Cl)cc2c1-c1ccc(Cl)cc1/C2=C/c1ccc(Cl)cc1 (centres undefined) [LUMEFANTRINE] |  | 12 |  |  |  | 12 |  | 12 | 
CN1CCN(CCNc2nc3ccc(Cl)cc3c3c2/C(=N/O)c2ccccc2-3)CC1 | 1 | 699 | 3.9 | 3.7 | 2580 | 667 | 0.8 | 818 | Ratio CC50/IC50 [11]: 3.2
C(=C(c1ccccc1)c1ccccc1)[C@@H]1CCCN2CCCC[C@H]12 |  |  |  |  |  |  |  |  | MIC [7]: 3.9 µM (≈ 1.24 µg/mL)
O=C1c2ccccc2-c2c1c(NCCN1CCCCC1)nc1cc(Cl)ccc21 |  | 1170 |  |  |  |  | 0.5 | 2340 | 
O=C1c2ccccc2-c2c1c(NCCN1CCCCC1)nc1ccc(Cl)cc21 |  | 626 |  |  |  |  | 0.4 | 1710 | 
O=C1c2ccccc2-c2c1c(N1CCN(c3ccccn3)CC1)nc1ccc(Cl)cc21 | 1.1 | 6940 |  |  |  | 6080 |  |  | 
Clc1ccc(C(=C[C@@H]2CCCN3CCCC[C@H]23)c2ccc(Cl)cc2)cc1 |  |  |  |  |  |  |  |  | MIC [7]: 1.6 µM (≈ 0.618 µg/mL)
COc1nc2ccc(Cl)cc2c2c1/C(=N/NC(=N)N)c1ccccc1-2 | 1.2 | 432 | 4.8 | 4 | 1720 | 360 |  |  | 
CCC(=O)O/N=C1\c2ccccc2-c2c1c(N1CCN(c3ccccn3)CC1)nc1ccc(Cl)cc21 | 1 | 4160 | > 8.7 | > 8.4 | > 35000 | 4050 |  |  | 
O=C(c1ccc2[nH]ccc2c1)N1CCN(C2c3ccccc3-c3ccccc32)CC1 |  |  |  |  |  |  |  | 16900 | IC50 (Plasmodium falciparum [12]): 21600 nM
Clc1cccc(/C(=C\[C@@H]2CCCN3CCCC[C@H]23)c2ccccc2)c1 |  |  |  |  |  |  |  |  | MIC [7]: 0.85 µM (≈ 0.299 µg/mL)
CN1CCN(CCNc2nc3cc(Cl)ccc3c3c2C(=O)c2ccccc2-3)CC1 | 1.1 | 534 | 6.7 | 5.9 | 3120 | 468 |  |  | 
O=C1c2ccccc2-c2c1c(NCCN1CCOCC1)nc1cc(Cl)ccc21 | 0.7 | 2550 |  |  |  | 3760 | 0.4 | 6780 | 
O/N=C1\c2ccccc2-c2c1c(N1CCN(c3ccccn3)CC1)nc1ccc(Cl)cc21 | 1 | 6810 | > 5.8 | > 5.6 | > 38000 | 6610 |  |  | 
CN1CCN(CCNc2nc3ccc(Cl)cc3c3c2C(=O)c2ccccc2-3)CC1 | 0.8 | 568 | 2.8 | 3.4 | 1940 | 703 | 0.5 | 1030 | Ratio CC50/IC50 [11]: 1.9
CN1CCN(c2nc3ccc(Cl)cc3c3c2C(=O)c2ccccc2-3)CC1 | 0.7 | 1190 | 2.5 | 3.4 | 4030 | 1640 |  |  | 
CCN(CC)CCCC(C)Nc1ccnc2cc(Cl)ccc12 (centres undefined) [CHLOROQUINE] |  |  |  |  | > 38000 |  |  |  | 
O/N=C1\c2ccccc2-c2c1c(NCCN1CCCCC1)nc1ccc(Cl)cc21 | 0.3 | 255 | 3.7 | 12 | 3120 | 850 | 0.3 | 843 | Ratio CC50/IC50 [11]: 3.7; IC50 (Heme): > 4 molar ratio

Reference: ChEMBL document CHEMBL3351756, “Synthesis and evaluation of the antiplasmodial activity of novel indeno[2,1-c]quinoline derivatives” (Bioorg Med Chem, 2014)
